Legend:
[1] = molecular target: Serine/threonine-protein kinase Nek6 (Homo sapiens) (UniProt Q9HC98); conditions: Compound concentration 1000.0 nM
[2] = molecular target: Testis-specific serine/threonine-protein kinase 1 (Homo sapiens) (UniProt Q9BXA7); conditions: Compound concentration 1000.0 nM
[3] = molecular target: BMP-2-inducible protein kinase (Homo sapiens) (UniProt Q9NSY1); conditions: Compound concentration 1000.0 nM
[4] = molecular target: Mitogen-activated protein kinase 15 (Homo sapiens) (UniProt Q8TD08); conditions: Compound concentration 1000.0 nM
[5] = molecular target: Macrophage colony-stimulating factor 1 receptor (Homo sapiens) (UniProt P07333); conditions: Compound concentration 1000.0 nM
[6] = molecular target: Protein kinase C eta type (Homo sapiens) (UniProt P24723); conditions: Compound concentration 1000.0 nM
[7] = molecular target: Serine/threonine-protein kinase 36 (Homo sapiens) (UniProt Q9NRP7); conditions: Compound concentration 1000.0 nM
[8] = tested on: Mast/stem cell growth factor receptor Kit (Homo sapiens), P10721 [A829P]; conditions: Compound concentration 1000.0 nM
[9] = molecular target: Cyclin-dependent kinase-like 1 (Homo sapiens) (UniProt Q00532); conditions: Compound concentration 1000.0 nM
[10] = molecular target: Mitogen-activated protein kinase kinase kinase 7 (Homo sapiens) (UniProt O43318); conditions: Compound concentration 1000.0 nM
[11] = molecular target: Calcium/calmodulin-dependent protein kinase type IV (Homo sapiens) (UniProt Q16566); conditions: Compound concentration 1000.0 nM
[12] = molecular target: Insulin receptor-related protein (Homo sapiens) (UniProt P14616); conditions: Compound concentration 1000.0 nM
[13] = molecular target: Kappa-type opioid receptor (Homo sapiens) (UniProt P41145); conditions: Compound concentration 10.0 uM
[14] = molecular target: Activated CDC42 kinase 1 (Homo sapiens) (UniProt Q07912); conditions: Compound concentration 1000.0 nM
[15] = molecular target: Mu-type opioid receptor (Homo sapiens) (UniProt P35372); conditions: Compound concentration 10.0 uM
[16] = molecular target: Cyclin-dependent kinase 14 (Homo sapiens) (UniProt O94921); conditions: Compound concentration 1000.0 nM
[17] = molecular target: Cyclin-dependent kinase 18 (Homo sapiens) (UniProt Q07002); conditions: Compound concentration 1000.0 nM
[18] = molecular target: Serine/threonine-protein kinase BRSK2 (Homo sapiens) (UniProt Q8IWQ3); conditions: Compound concentration 1000.0 nM
Sequence of Serine/threonine-protein kinase BRSK2 (Homo sapiens) (Q8IWQ3 whole entry): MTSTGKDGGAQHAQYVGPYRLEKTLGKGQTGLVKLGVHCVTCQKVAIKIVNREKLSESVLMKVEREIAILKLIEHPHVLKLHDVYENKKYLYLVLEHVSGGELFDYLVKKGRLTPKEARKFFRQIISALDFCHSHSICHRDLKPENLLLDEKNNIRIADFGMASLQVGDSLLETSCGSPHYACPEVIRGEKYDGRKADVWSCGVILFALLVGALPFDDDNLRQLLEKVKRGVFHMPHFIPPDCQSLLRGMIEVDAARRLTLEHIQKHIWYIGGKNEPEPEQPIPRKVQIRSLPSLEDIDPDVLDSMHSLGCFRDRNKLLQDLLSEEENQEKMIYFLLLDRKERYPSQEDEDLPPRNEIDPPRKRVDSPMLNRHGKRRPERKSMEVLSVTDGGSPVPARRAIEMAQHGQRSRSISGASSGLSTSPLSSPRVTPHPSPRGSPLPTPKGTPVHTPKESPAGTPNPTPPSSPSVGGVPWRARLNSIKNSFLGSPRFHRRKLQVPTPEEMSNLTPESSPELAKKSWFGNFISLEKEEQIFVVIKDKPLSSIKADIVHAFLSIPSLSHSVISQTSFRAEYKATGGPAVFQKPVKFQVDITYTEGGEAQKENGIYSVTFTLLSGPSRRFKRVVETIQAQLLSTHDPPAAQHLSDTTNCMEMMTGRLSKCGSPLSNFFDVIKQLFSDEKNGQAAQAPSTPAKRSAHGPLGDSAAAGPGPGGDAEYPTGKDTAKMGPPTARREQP

Sequence of Kappa-type opioid receptor (Homo sapiens) (P41145 whole entry): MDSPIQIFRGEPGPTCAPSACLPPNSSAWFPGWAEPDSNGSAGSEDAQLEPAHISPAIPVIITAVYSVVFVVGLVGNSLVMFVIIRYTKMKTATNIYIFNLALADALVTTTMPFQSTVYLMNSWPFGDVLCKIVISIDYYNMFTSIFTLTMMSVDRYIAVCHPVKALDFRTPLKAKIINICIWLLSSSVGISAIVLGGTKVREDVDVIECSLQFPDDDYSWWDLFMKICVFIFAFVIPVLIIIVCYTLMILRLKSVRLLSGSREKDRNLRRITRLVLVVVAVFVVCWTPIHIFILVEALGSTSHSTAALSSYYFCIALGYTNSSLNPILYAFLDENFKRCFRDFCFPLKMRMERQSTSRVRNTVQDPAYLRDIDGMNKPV
Sequence of Mitogen-activated protein kinase 15 (Homo sapiens) (Q8TD08 whole entry): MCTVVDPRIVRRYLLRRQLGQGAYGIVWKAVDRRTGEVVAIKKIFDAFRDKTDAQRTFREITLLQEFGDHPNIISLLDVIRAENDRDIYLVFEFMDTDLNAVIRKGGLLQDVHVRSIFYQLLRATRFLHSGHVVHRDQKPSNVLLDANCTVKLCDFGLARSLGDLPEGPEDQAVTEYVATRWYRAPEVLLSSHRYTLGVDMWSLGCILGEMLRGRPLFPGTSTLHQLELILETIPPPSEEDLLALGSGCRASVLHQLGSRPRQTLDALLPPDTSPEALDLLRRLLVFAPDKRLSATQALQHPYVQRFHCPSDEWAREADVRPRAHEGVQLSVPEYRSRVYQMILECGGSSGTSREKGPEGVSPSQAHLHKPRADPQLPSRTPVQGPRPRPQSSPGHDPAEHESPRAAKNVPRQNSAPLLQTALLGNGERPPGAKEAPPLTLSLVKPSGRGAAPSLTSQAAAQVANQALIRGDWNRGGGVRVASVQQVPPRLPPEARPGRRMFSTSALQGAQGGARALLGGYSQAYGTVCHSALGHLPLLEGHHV
Sequence of Cyclin-dependent kinase 14 (Homo sapiens) (O94921 whole entry): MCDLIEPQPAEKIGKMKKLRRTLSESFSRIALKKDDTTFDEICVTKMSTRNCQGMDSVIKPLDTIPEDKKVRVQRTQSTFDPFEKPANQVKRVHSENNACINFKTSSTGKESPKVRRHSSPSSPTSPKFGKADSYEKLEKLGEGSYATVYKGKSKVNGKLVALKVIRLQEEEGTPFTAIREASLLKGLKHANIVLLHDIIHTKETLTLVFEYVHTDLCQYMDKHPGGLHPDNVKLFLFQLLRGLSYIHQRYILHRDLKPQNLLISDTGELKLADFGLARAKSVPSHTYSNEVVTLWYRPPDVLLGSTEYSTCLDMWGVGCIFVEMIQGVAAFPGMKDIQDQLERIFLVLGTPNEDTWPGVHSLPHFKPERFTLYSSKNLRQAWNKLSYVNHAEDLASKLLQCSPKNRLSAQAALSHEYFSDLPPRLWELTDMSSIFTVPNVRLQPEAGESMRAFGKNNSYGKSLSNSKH
Sequence of Mast/stem cell growth factor receptor Kit (Homo sapiens), P10721 [A829P] (P10721 whole entry A829P): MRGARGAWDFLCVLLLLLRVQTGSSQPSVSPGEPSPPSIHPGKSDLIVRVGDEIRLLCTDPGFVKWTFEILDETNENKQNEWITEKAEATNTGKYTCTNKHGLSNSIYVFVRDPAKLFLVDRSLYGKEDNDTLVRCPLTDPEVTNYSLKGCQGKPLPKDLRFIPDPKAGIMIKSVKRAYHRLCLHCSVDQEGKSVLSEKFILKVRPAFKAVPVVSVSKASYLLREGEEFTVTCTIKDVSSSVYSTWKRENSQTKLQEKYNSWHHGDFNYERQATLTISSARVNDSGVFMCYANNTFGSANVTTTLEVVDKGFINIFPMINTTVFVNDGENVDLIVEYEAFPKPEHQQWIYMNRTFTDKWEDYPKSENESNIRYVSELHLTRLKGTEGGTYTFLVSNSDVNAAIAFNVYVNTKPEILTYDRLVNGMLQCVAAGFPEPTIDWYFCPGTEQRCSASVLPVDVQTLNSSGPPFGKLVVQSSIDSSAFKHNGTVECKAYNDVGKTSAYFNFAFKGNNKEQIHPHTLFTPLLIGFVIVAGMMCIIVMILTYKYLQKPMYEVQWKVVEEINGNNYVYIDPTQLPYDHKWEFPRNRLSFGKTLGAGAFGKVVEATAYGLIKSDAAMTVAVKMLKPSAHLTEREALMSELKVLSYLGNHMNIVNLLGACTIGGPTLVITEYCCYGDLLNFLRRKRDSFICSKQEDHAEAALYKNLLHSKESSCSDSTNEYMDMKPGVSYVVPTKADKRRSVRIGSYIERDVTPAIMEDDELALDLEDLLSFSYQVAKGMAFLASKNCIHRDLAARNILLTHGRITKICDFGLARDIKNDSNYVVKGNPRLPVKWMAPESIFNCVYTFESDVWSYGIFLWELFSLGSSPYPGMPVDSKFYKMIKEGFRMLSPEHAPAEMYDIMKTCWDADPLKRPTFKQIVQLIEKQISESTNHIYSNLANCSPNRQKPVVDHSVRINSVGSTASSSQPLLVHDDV
Sequence of Serine/threonine-protein kinase Nek6 (Homo sapiens) (Q9HC98 whole entry): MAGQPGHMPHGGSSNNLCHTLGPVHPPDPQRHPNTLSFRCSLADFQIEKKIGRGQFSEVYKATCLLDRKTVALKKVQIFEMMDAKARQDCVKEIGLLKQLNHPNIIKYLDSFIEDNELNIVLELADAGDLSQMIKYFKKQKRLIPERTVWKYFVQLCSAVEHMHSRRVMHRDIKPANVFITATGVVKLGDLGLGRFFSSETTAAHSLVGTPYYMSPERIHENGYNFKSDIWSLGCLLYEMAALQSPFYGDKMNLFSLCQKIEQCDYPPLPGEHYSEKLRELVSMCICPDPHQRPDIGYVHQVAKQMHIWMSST
Sequence of Cyclin-dependent kinase 18 (Homo sapiens) (Q07002 whole entry): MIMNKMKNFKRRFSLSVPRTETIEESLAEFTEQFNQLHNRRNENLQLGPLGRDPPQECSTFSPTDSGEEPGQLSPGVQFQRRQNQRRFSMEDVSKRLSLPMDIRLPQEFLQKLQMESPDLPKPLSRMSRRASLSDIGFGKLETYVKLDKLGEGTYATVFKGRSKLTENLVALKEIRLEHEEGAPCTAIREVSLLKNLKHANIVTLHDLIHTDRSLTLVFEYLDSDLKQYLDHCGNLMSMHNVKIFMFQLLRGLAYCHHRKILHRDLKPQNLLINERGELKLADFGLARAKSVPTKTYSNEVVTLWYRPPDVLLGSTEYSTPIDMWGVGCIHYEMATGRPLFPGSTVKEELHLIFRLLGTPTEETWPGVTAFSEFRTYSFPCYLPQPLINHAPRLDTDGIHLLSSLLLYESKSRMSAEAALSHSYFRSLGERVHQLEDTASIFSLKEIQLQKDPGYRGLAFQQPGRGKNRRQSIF
Sequence of Mitogen-activated protein kinase kinase kinase 7 (Homo sapiens) (O43318 whole entry): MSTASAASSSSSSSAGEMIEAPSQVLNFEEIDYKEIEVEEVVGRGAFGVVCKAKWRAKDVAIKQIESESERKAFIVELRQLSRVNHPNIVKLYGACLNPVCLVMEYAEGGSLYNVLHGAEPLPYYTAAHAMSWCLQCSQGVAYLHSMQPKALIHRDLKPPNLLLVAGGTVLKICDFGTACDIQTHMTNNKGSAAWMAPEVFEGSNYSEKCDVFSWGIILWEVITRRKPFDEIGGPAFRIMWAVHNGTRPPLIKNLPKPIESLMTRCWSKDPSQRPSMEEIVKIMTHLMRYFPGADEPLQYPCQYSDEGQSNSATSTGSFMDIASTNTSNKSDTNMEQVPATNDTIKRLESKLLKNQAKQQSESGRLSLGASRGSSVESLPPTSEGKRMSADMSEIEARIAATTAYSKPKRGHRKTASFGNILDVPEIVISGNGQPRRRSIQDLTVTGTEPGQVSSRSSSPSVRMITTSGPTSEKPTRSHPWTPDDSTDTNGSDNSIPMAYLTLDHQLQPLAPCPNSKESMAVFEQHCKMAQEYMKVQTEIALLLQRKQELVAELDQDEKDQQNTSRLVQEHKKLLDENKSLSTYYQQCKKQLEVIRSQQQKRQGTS
Sequence of Calcium/calmodulin-dependent protein kinase type IV (Homo sapiens) (Q16566 whole entry): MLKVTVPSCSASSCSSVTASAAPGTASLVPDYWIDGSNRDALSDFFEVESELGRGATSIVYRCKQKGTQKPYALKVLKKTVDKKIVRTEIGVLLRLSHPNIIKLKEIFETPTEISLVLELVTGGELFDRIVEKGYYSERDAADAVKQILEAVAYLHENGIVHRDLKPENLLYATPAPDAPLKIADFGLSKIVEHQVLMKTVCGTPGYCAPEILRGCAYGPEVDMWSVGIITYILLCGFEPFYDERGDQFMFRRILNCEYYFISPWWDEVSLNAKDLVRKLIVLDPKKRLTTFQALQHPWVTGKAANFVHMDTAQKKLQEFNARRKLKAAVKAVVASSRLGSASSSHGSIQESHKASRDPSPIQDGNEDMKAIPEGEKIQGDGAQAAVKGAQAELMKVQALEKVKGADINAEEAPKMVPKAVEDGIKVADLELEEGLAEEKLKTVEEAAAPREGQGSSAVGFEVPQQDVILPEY

Cc1nc(N2CC[C@@H](O)C2)ncc1-c1cc(C(F)(F)F)cc2[nH]ncc12 [TP-004]
inactive: residual activity [1] 89% | residual activity [2] 98% | residual activity [3] 100% | residual activity [4] 86% | residual activity [5] 89% | residual activity [6] 94% | residual activity [7] 100% | residual activity [8] 60% | residual activity [9] 77% | residual activity [10] 89% | residual activity [11] 100% | residual activity [12] 87% | inhibition [13] 7.69% | residual activity [14] 90% | inhibition [15] 7.79% | residual activity [16] 100% | residual activity [17] 100% | residual activity [18] 90%
